# ChEMBL document CHEMBL5346978, “Exploration of Tetrahydroisoquinoline- and Benzo[c]azepine-Based Sphingosine 1-Phosphate Receptor 1 Agonists for the Treatment of Multiple Sclerosis” (J Med Chem, 2023)
# pEC50: −log10 of the molar value.
# Assays:
# [1] = target: T1, Sphingosine 1-phosphate receptor 1 (Homo sapiens, UniProt P21453); assay: Agonist activity at S1P1 (unknown origin) expressed in human HEK293/Galpha15 cells assessed as Ca2+ activation at 1 uM measured for 2 hrs by FLIPR analysis relative to control; format: functional, cell-based
# [2] = target: T1, Sphingosine 1-phosphate receptor 1; assay: Agonist activity at S1P1 (unknown origin) expressed in PathHunter CHO-K1 EDG1 beta-arrestin cells assessed as beta-arrestin2 recruitment at 1 uM incubated for 90 mins by chemiluminescence based assay relative to control; format: functional, cell-based
# [3] = target: T1, Sphingosine 1-phosphate receptor 1; assay: Agonist activity at S1P1 (unknown origin) expressed in human HEK293/Galpha15 cells assessed as Ca2+ activation measured for 2 hrs by FLIPR analysis; format: functional, cell-based
# [4] = target: T1, Sphingosine 1-phosphate receptor 1; assay: Agonist activity at S1P1 (unknown origin) expressed in PathHunter CHO-K1 EDG1 beta-arrestin cells assessed as beta-arrestin2 recruitment incubated for 90 mins by chemiluminescence based assay; format: functional, cell-based
# [5] = Microsomal stability in rat liver microsomes assessed as parent compound remaining preincubated for 5 mins followed by NADPH addition measured after 60 mins by LC-MS/MS analysis; format: ADME, Microsome; conditions: time 65 min, read-out: Stability
# CYP3A4 = CYP3A4 (Homo sapiens, UniProt P08684); assay: Inhibition of CYP3A4 in human liver microsomes using midazolam as substrate assessed as residual activity at 10 uM preincubated for 5 mins followed by substrate addition and measured after 15 mins in presence of NADPH by LC-MS/MS analysis; format: ADME, Microsome; conditions: probe midazolam, time 20 min, read-out: Activity
# CYP2D6 = CYP2D6 (Homo sapiens, UniProt P10635); assay: Inhibition of CYP2D6 in human liver microsomes using dextromethorphan as substrate assessed as residual activity at 10 uM preincubated for 5 mins followed by substrate addition and measured after 15 mins in presence of NADPH by LC-MS/MS analysis; format: ADME, Microsome; conditions: probe dextromethorphan, time 20 min, read-out: Activity
# CYP2C9 = CYP2C9 (Homo sapiens, UniProt P11712); assay: Inhibition of CYP2C9 in human liver microsomes using diclofenac as substrate assessed as residual activity at 10 uM preincubated for 5 mins followed by substrate addition and measured after 15 mins in presence of NADPH by LC-MS/MS analysis; format: ADME, Microsome; conditions: probe diclofenac, time 20 min, read-out: Activity
# [6] = Microsomal stability in mouse liver microsomes assessed as parent compound remaining preincubated for 5 mins followed by NADPH addition measured after 60 mins by LC-MS/MS analysis; format: ADME, Microsome; conditions: time 65 min, read-out: Stability
# CYP1A2 = target: T2, CYP1A2 (Homo sapiens, UniProt P05177); assay: Inhibition of CYP1A2 in human liver microsomes using phenacetin as substrate assessed as residual activity at 10 uM preincubated for 5 mins followed by substrate addition and measured after 15 mins in presence of NADPH by LC-MS/MS analysis; format: ADME, Microsome; conditions: probe phenacetin, time 20 min, read-out: Activity
# T2 sequence (P05177 whole entry): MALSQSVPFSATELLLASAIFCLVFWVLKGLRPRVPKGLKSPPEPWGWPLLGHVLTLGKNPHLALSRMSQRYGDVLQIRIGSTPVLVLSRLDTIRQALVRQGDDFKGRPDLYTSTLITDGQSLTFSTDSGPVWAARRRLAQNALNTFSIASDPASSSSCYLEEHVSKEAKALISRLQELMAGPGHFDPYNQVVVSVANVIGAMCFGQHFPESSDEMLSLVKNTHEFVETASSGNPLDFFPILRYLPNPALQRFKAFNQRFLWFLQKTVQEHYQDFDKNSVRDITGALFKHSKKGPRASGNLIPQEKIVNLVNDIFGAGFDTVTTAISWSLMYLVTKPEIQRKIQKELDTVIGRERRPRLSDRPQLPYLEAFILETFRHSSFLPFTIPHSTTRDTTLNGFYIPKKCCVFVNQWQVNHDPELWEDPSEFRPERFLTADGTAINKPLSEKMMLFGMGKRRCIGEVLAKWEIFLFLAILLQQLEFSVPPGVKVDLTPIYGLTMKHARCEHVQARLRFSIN
# [7] = Microsomal stability in human liver microsomes assessed as parent compound remaining preincubated for 5 mins followed by NADPH addition measured after 30 mins by LC-MS/MS analysis; format: ADME, Microsome; conditions: time 35 min, read-out: Stability
# [8] = Microsomal stability in mouse liver microsomes assessed as parent compound remaining preincubated for 5 mins followed by NADPH addition measured after 30 mins by LC-MS/MS analysis; format: ADME, Microsome; conditions: time 35 min, read-out: Stability
# T1 sequence (P21453 whole entry): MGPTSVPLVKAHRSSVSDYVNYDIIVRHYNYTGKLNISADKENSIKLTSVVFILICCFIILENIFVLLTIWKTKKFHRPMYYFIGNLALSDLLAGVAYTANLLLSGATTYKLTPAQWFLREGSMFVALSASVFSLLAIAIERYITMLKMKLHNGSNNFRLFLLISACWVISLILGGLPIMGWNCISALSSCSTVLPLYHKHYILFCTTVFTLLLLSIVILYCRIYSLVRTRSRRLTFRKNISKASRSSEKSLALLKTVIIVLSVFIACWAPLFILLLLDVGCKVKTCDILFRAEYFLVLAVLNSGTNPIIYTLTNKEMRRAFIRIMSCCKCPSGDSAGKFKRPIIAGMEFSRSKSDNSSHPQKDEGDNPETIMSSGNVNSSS
# CYP2C9, sequence (P11712 whole entry): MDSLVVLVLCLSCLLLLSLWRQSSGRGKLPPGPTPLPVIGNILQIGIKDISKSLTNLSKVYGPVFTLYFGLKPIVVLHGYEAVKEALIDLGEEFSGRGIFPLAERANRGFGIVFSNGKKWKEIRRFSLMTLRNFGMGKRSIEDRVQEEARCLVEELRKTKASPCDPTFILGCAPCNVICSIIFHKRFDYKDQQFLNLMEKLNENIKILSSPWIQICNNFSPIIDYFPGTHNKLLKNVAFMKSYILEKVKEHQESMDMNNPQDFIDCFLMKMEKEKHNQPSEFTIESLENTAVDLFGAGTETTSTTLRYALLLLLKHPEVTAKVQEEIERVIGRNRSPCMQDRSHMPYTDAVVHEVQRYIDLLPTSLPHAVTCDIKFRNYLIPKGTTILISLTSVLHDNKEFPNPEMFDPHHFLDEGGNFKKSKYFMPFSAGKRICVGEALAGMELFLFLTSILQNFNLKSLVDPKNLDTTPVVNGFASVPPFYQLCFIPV
# CYP3A4, sequence (P08684 whole entry): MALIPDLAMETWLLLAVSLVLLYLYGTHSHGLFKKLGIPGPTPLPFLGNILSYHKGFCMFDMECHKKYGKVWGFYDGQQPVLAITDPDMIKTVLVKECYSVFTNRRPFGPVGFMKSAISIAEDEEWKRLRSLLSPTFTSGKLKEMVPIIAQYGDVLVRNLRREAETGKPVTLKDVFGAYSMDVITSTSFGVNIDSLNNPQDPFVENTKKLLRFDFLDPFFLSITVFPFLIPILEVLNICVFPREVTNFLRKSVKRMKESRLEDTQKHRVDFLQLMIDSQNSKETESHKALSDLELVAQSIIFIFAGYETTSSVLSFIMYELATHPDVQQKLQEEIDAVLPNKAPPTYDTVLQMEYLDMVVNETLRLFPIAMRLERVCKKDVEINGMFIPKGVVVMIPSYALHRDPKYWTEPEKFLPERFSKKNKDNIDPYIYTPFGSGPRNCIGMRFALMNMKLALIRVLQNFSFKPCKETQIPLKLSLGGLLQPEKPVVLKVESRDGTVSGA
# CYP2D6, sequence (P10635 whole entry): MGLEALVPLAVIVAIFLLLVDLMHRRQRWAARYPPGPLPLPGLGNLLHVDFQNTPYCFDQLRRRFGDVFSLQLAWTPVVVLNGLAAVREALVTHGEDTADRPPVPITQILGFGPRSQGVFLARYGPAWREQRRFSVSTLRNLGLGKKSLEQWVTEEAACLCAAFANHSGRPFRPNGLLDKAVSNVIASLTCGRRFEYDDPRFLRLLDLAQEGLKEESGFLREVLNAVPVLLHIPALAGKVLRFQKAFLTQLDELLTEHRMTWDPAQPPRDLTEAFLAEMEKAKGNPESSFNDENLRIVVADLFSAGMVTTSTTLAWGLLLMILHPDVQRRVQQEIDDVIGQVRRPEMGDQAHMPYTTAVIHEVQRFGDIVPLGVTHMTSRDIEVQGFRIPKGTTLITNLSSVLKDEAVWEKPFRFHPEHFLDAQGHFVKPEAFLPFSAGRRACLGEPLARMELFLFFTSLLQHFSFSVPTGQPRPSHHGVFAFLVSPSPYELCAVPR
Structure (SMILES),Activity [1] [%],Activity [2] [%],Activity ([2]; filed as agonist) [%],pEC50 [4],further results
CC(C)Oc1ccc(C(=O)Nc2ccc3c(c2)CCN(S(=O)(=O)CCC(=O)O)C3)cc1C#N,18,15,,,
CC(C)Oc1ccc(COc2ccc3c(c2)CCN(C(=O)CCC(=O)O)C3C)cc1C#N (configuration not stated),,,40,,pEC50 [3]: 6.02; Activity ([1]; filed as agonist): 57%
CC(C)Oc1ccc(COc2ccc3c(c2)CCN(CC(=O)O)C3)cc1C#N,,,67,6.16,pEC50 [3]: 8.98; Activity ([1]; filed as agonist): 56%
CC(=O)NCCCC(=O)N1CCc2cc(OCc3ccc(OC(C)C)c(C#N)c3)ccc2C1,,,105,6.37,pEC50 [3]: 5.90; Activity ([1]; filed as agonist): 55%
CC(C)Oc1ccc(COc2ccc3c(c2)CCN(S(=O)(=O)CCO)C3)cc1C#N,,,88,6.72,Activity ([1]; filed as agonist): 44%
CC(C)Oc1ccc(COc2ccc3c(c2)CCN(C(=O)CCO)C3)cc1C#N,36,,88,6.73,
CC(C)Oc1ccc(COc2ccc3c(c2)CCN(S(=O)(=O)CCC(=O)O)CC3)cc1C#N,9,25,,,
CC(C)Oc1ccc(COc2ccc3c(c2)CN(S(=O)(=O)CCCO)CC3)cc1C#N,3,7,,,
CC(C)Oc1ccc(COc2ccc3c(n2)CCN(C(=O)CCC(=O)O)C3)cc1C#N,14,26,,,
COC(=O)CCS(=O)(=O)N1CCc2cc(Nc3ccc(OC(C)C)c(C#N)c3)ccc2C1,5,3,,,
CC(C)Oc1ccc(COc2ccc3c(c2)CCN(C(=O)CCC(N)=O)C3)cc1C#N,,,91,6.96,pEC50 [3]: 5.65; Activity ([1]; filed as agonist): 47%
CC(C)Oc1ccc(COc2ccc3c(c2)CN(CCC(=O)O)CC3)cc1C#N,1,2,,,
CC(C)Oc1ccc(COc2ccc3c(c2)CCN(S(=O)(=O)CC(=O)O)C3)cc1C#N,,,92,6.79,pEC50 [3]: 7.05; Activity ([1]; filed as agonist): 85%
CC(C)Oc1ccc(COc2ccc3c(c2)CCN(S(=O)(=O)CC(=O)O)C3C)cc1C#N (configuration not stated),21,17,,,
COC(=O)CCS(=O)(=O)N1CCc2cc(NC(=O)c3ccc(OC(C)C)c(C#N)c3)ccc2C1,7,7,,,
COC(=O)CCS(=O)(=O)N1CCc2cc(OCc3ccc(OC(C)C)c(C#N)c3)ccc2C1,9,,103,7.22,

Structure (SMILES),Activity [1] [%],Activity [2] [%],Activity ([2]; filed as agonist) [%],pEC50 [4],further results
CC(C)Oc1ccc(COc2ccc3c(c2)CN(CCC(=O)O)CCC3)cc1C#N,13,6,,,
CC(C)Oc1ccc(COc2ccc3c(c2)CCN(C(C)C(=O)O)C3)cc1C#N (configuration not stated),10,18,,,
CC(C)Oc1ccc(CN(C)c2ccc3c(c2)CCN(S(=O)(=O)CCC(=O)O)C3)cc1C#N,8,9,,,
CC(=O)NCCC(=O)N1CCc2cc(OCc3ccc(OC(C)C)c(C#N)c3)ccc2C1,,,117,6.56,pEC50 [3]: 5.77; remaining at 0.5 h [7]: 29.7%; remaining at 0.5 h [8]: 14.9%; Activity ([1]; filed as agonist): 41%
CC(C)Oc1ccc(COc2ccc3c(c2)CCN(CCCC(=O)O)C3)cc1C#N,,,91,7.01,pEC50 [3]: 7.01; Activity ([1]; filed as agonist): 79%
CC(C)Oc1ccc(COc2ccc3c(c2)OCCN(S(=O)(=O)CCO)C3)cc1C#N,,,96,7.65,pEC50 [3]: 6.17; Activity ([1]; filed as agonist): 65%
COC(=O)CCN1CCc2cc(OCc3ccc(OC(C)C)c(C#N)c3)ccc2C1,,,91,6.48,Activity ([1]; filed as agonist): 40%
CC(C)Oc1ccc(COc2cccc3c2CCN(CCC(=O)O)C3)cc1C#N,6,2,,,
CC(C)Oc1ccc(COc2ccc3c(n2)CCN(S(=O)(=O)CCCO)C3)cc1C#N,10,,118,6.46,
CC(C)Oc1ccc(COc2ccc3c(c2)CCN(S(=O)(=O)CCCO)C3C)cc1C#N (configuration not stated),12,,45,,
CC(C)Oc1ccc(COc2ccc3c(c2)CCN(C(=O)CCCNS(C)(=O)=O)C3)cc1C#N,6,,68,6.13,
CC(C)Oc1ccc(COc2ccc3c(c2)CCN(C(=O)CC(=O)O)C3)cc1C#N,,,42,,pEC50 [3]: 6.10; Activity ([1]; filed as agonist): 64%
COC(=O)CCS(=O)(=O)N1CCc2cc(NCc3ccc(OC(C)C)c(C#N)c3)ccc2C1,13,26,,,
COC(=O)CS(=O)(=O)N1CCc2cc(OCc3ccc(OC(C)C)c(C#N)c3)ccc2C1,6,,89,6.55,
CC(C)Oc1ccc(COc2ccc3c(c2)CCN(CCCCO)C3)cc1C#N,3,24,,,

# Now from value to compound, other results behind:
Activity [1] [%],Activity [2] [%],Activity ([2]; filed as agonist) [%],pEC50 [4],Structure (SMILES),further results
4,1,,,CC(C)Oc1ccc(COc2cccc3c2CCN(S(=O)(=O)CCC(=O)O)C3)cc1C#N,
3,1,,,CC(C)Oc1ccc(COc2cccc3c2CCN(S(=O)(=O)CCCO)C3)cc1C#N,
,,74,6.98,CC(C)Oc1ccc(COc2ccc3c(c2)CCN(CCC(=O)O)C3C)cc1C#N (configuration not stated),pEC50 [3]: 6.28; Activity ([1]; filed as agonist): 69%
13,32,,,COC(=O)CN1CCc2cc(OCc3ccc(OC(C)C)c(C#N)c3)ccc2C1,
,,109,7.54,CC(C)Oc1ccc(COc2ccc3c(c2)OCCN(S(=O)(=O)CCC(=O)O)C3)cc1C#N,"pEC50 [3]: 7.17; remaining at 1 h [5]: 92.9%; Activity ([1]; filed as agonist): 83%; activity at 0.25 h, 10 µM (CYP3A4): 68.8%; activity at 0.25 h, 10 µM (CYP2D6): 73.6%; activity at 0.25 h, 10 µM (CYP2C9): 70.7%; remaining at 1 h [6]: 90.5%; activity at 0.25 h, 10 µM (CYP1A2): 71.2%"
,,98,6.71,CC(C)Oc1ccc(COc2ccc3c(c2)CCN(CCC(=O)O)C3)cc1C#N,"pEC50 [3]: 6.61; remaining at 0.5 h [7]: 99%; remaining at 0.5 h [8]: 98.7%; Activity ([1]; filed as agonist): 82%; activity at 0.25 h, 10 µM (CYP3A4): 90.2%; activity at 0.25 h, 10 µM (CYP2D6): 95.4%; activity at 0.25 h, 10 µM (CYP2C9): 92.2%; activity at 0.25 h, 10 µM (CYP1A2): 85.1%"
3,2,,,CC(C)Oc1ccc(COc2ccc3c(c2)CCCN(CCC(=O)O)C3)cc1C#N,
7,,91,6.81,COC(=O)CCCN1CCc2cc(OCc3ccc(OC(C)C)c(C#N)c3)ccc2C1,
39,,82,5.83,CNC(=O)CCC(=O)N1CCc2cc(OCc3ccc(OC(C)C)c(C#N)c3)ccc2C1,
3,4,,,CC(C)Oc1ccc(COc2ccc3c(c2)CN(S(=O)(=O)CCC(=O)O)CC3)cc1C#N,
6,,72,6.30,CC(C)Oc1ccc(COc2ccc3c(c2)CCN(S(=O)(=O)CCCO)C3)cc1C#N,
5,30,,,CC(C)Oc1ccc(COc2ccc3c(c2)CCN(CCCO)C3)cc1C#N,
14,24,,,CC(C)Oc1ccc(COc2ccc3c(c2)OCCN(CCC(=O)O)C3)cc1C#N,
7,32,,,CC(C)Oc1ccc(COc2ccc3c(c2)CCN(CCO)C3)cc1C#N,
8,0,,,CC(C)Oc1ccc(COc2ccc3c(c2)CN(S(=O)(=O)CCC(=O)O)CCC3)cc1C#N,
12,5,,,COC(=O)CCS(=O)(=O)N1CCc2cc(N(C)Cc3ccc(OC(C)C)c(C#N)c3)ccc2C1,
3,35,,,CC(C)Oc1ccc(COc2ccc3c(c2)CCCN3S(=O)(=O)CCCO)cc1C#N,
